{"source": "patent US8980832B2", "about": "“Use of fumaric acid derivatives for treating cardiac insufficiency, and asthma” (Biogen Idec International GmbH, priority 2003, dated 2015)", "key": {"[1]": {"tested_on": "BSM (bronchial smooth muscle) cells", "assay": "inhibition of the PDGF-induced incorporation of 3H-thymidine in BSM cells (Example B)", "format": "cell-based", "conditions": "10^-5 M dimethyl fumarate; 0, 1, 5, 10 and 20 ng/ml PDGF; 24 h 3H-thymidine", "description": "BSM (bronchial smooth muscle) cells were cultivated in RPMI, 0.3% albumin and 0.1% DMSO at 37° C. in the presence of 0, 1, 5, 10 and 20 ng/ml on PDGF with and without 10^−5 M dimethyl fumarate.\nAfter a predetermined period of time, 5 μCi on ^3H-thymidine was added to the culture medium and incubation was continued for further 24 hours. The incorporation was finally stopped by means of centrifugation, removal of the supernatant, washing and lysis of the cells. The incorporation on ^3H-thymidine was measured by determining the radioactivity in the lysates in a liquid scintillation device in comparison to the control. The results are shown in FIG. 2 as percentage values as compared with the control (100%)."}, "[2]": {"tested_on": "Dahl-rats", "assay": "left ventricular enddiastolic diameter in Dahl rats on high salt diet, echocardiography", "format": "in vivo, rat", "conditions": "2x5 and 2x15 mg DMF/kg/d, 8 weeks of high salt diet", "description": "Dahl-rats, which are salt sensitive, were administered varying dosages of DMF on a daily basis and put on a high salt diet. After 8 weeks of treatment the left ventricular enddiastolic diameters were measured for test and control groups by echocardiographic analysis. Groups measured were control (0 mg DMF; n=9); group 1 (2×5 mg DMF/kg/d; n=9) and group 2 (2×15 mg DMF/kg/d; n=11). […] Specifically, in the DMF groups the inner diameter of the left ventricle remained in the same range as at baseline (see FIG. 4). […] Importantly, dilatation of the left ventricle marks the transition from compensated hypertrophy to decompensated heart failure. Consequently, DMF delays the transition to heart failure, and thus prevents myocardial infarctions."}, "[3]": {"tested_on": "rat model of acute ischemia and reperfusion", "assay": "acute ischemia and reperfusion model of the rat, size of the infarction", "format": "in vivo", "conditions": "10 mg dimethyl fumarate in 0.02% DMSO iv at beginning of first occlusion; 45 min ischemia, 120 min reperfusion; vs control", "description": "The effects of dimethyl fumarate were examined in the present experiment using the model of acute ischemia and reperfusion of the rat. For this purpose, healthy, male rats were divided into three groups with 17 animals each. In the tests, an ischemia was caused for 45 minutes through an occlusion of an artery with the heart being exposed and, subsequently, reperfusion was carried out for 120 minutes. Finally, a myocardial infarction was triggered by means of a reocclusion and the risk area was determined by means of dyeing with phthalocyanine blue. The administration of the test substance was carried out iv at the beginning of the first occlusion. The control group received 0.02% DMSO (0.5 ml/kg body weight), the DMF group received 10 mg dimethyl fumarate in 0.02% DMSO (0.5 ml/kg body weight). The animals were ischemically preconditioned in the second group (2 times 5 minutes each ischemia and reperfusion). The results are represented in FIG. 1."}, "[4]": {"tested_on": "Bronchial smooth muscle cells", "assay": "PDGF-stimulated proliferation of bronchial smooth muscle cells, 3H-thymidine (Example C)", "format": "cell-based", "conditions": "10 ng/ml PDGF; 10^-5 M DMF; 36 h treatment + 8 h 3H-thymidine", "description": "Bronchial smooth muscle cells were grown in 96 well plates until they reached 60-70% confluency. The cells were then starved for 48 h in serum free, 0.3% albumine containing RPMI medium. […] As a control untreated cells (buffer only) were used. Cells were treated for 36 h, whereafter 4 μCi of ^3H-thymidine was added for further 8 hours. The cells were lysed, DNA-incorporated ^3H-thymidine bound to filter membranes, and the incorporated cpm measured in a liquid scintillation device."}}, "note": "Counter-ions that a name gives are not always drawn.", "data": [{"smiles": "COC(=O)/C=C/C(=O)OC", "note": "[DMF, dimethyl fumarate]", "values": [{"measurement": "PDGF-induced 3H-thymidine incorporation", "setting": "[1]", "result": "this increase is significantly reduced"}, {"measurement": "dilatation of the left ventricle (left ventricular enddiastolic diameter)", "setting": "[2]", "result": "prevented the dilatation of the left ventricle after 8 weeks of high salt diet in dose dependent manner"}, {"measurement": "size of the infarction", "setting": "[3]", "result": "limited the size of the infarction to a statistically significant degree"}, {"measurement": "cell proliferation, percentage of control (100%)", "setting": "[4]", "result": "116±4", "unit": "%"}]}]}
